Data reported in article PMC8457056, “Remodeling of the Fibrillation Pathway of α‐Synuclein by Interaction with Antimicrobial Peptide LL‐III” (Chemistry (Weinheim an Der Bergstrasse, Germany), 2021).

System: α‐Syn
Test: atomic force microscopy of α-Syn fibrils
Format: biochemical, human
Details: 20 μM α-Syn, dried on mica, 20 mM sodium acetate, pH 5.0, room temperature
Experimental: To verify inhibition of α‐Syn fibril formation upon addition of LL‐III, atomic force microscopy (AFM) experiments were carried out. To this end, a 20 μM solution of α‐Syn in the absence and in the presence of LL‐III was dried on a mica surface and AFM pictures were recorded. Under such conditions, liquid droplets could not be detected. In the absence of LL‐III, short fibril‐like structures were observed (Figure S3).
The lyophilized powders of the labeled and unlabeled LL-III peptide were purchased from GenScript, Germany.
The sequence of the LL-III peptide is NH2-VNWKKIL GKIIKVVK -CONH2. In th e labeled peptide, the fluorophore 6-carboxyfluorescein (FAM) was covalently attached to the N-terminus of the peptide. […]
The expression and purification of α-synuclein (α-Syn) was carried out as described before.[1,2] […] A single colony was picked and inoculated into 100 m l LB medium containing 150 μg/m l ampicillin and grown at 37°C with shaking at 250 rpm until the absorbance at 600 nm reached 0.8. […]
Phase-contrast light and fluorescence microscopy
The light and fluorescence microscopy experiments were performed using an Eclipse TE2000- U (Nikon Inc.) op-tical microscope with a Nikon Plan Fluor 20x objective (NA 0.45 WD 7.4) coupled to an TIS DMK 23UX249 camera. […] Fluorescence microscopy experiments were performed using 6-carboxyfluorescein- l abel ed LL- III (FAM-LL-III) exciting at 488 nm. […]

Q: NH2-VNWKKIL GKIIKVVK -CONH2 [LL‐III] was tested. Which “fibrils by AFM” value (200 μM LL-III) did it give?
A: some fibrils of smaller size were still visible after drying

Q: And the “fibrils by AFM” value (500 μM LL-III)?
A: fibrillar structures could no longer be detected
